IC50 data for 13 molecules are collected here from patent US8748435B2, “Pyrazolo pyrimidine derivatives” (Novartis AG, priority 2011, dated 2014).

One assay has as its target rat GPR4 (Rattus norvegicus (Rat), UniProt Q4KLH9). Put plainly: Rat GPR4 cAMP assay. The assay is classed as cell-based. The conditions noted are these: read-out: r cAMP IC50. On the procedure:
(§1) HeLa cells stably expressing human GPR4 were established by transfecting the cells with a construct containing the human GPR4 coding sequence. The cells were grown in Dulbecco's Modified Eagle Medium (DMEM)/HAM's tissue culture medium F12 (HAM's F12) supplemented with 10% fetal calf serum (FCS), 100 u/ml penicillin, 100 μg/ml streptomycin and 400 μg/ml G418 and 10 mM Hepes pH 8.0. pH-induced formation of cAMP was determined using the homogeneous time resolved fluorescence (HTRF) technology as provided by CisBio Inc. The cells were seeded in 384-well plates and cultured for 24 hours at 37° C., 5% CO2 before performing the assay. Medium was removed and 10 μl buffer A (Hepes buffered saline (HBS), 10 mM Hepes, pH 8, 2 mM 3-Isobutyl-1-methylxanthin (IBMX)) was added. For compound testing, buffer A with 2× concentrated compounds was used. Cells were incubated for 15 min at room temperature. 10 μl buffer B (HBS, 30 mM Hepes, specific pH) was added to reach the appropriate final pH for stimulation (see below) and incubation was continued for 15 min at room temperature. […] HBS: 130 mM NaCl, 0.9 mM NaH2 PO4, 5.4 mM KCl, 0.8 mM MgSO4, CaCl2 1.8 mM, 25 mM glucose, 10-30 mM Hepes. Adjustment of HBS buffers:
(§2) Compounds were diluted from fresh stock solutions at 10 mM in DMSO to 2 mM and then used for serial dilutions in DMSO.
(§3) In a similar manner, assays for the mouse (m) and rat (r) GPR4 receptors have been established.
(In general: cAMP levels reflect the balance of adenylyl cyclase and phosphodiesterase activity.)

In the next assay the target is mouse GPR4 (Mus musculus (Mouse), UniProt Q8BUD0). Put plainly: Mouse GPR4 cAMP assay. The format is cell-based. The method, then: as §1, §2, §3
Chain of mouse GPR4 (Q8BUD0 whole entry): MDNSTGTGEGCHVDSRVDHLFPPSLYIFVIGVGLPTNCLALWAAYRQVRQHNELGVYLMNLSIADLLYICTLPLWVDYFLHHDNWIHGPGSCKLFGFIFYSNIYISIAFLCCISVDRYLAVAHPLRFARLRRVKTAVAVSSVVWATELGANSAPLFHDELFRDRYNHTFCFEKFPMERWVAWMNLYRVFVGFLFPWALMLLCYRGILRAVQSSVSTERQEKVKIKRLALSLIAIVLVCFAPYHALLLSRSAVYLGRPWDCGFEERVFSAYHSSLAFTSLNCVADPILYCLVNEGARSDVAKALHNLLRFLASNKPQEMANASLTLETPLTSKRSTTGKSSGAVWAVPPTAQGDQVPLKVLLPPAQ
The target in assay [1] is T1, human GPR4 (Homo sapiens (Human), UniProt P46093). Nature of the assay: Human GPR4 binding assay ([3H]4 radioligand, membranes of 300.19 cells expressing human GPR4). On the procedure:
a) Human GPR4 Binding Assay
(§4) Cells were grown in T175 flasks to a density of about 1×10^6 cells/mL in growth medium. The cells were harvested by centrifugation (3000 rpm for 30 minutes at 4° C.) and the pellet resuspended in ice cold buffer A (20 mM HEPES pH 7.8, 10 mM EDTA, 100 mM NaCl, 1 tab/40 mL protease inhibitor complete). […] The homogenate was centrifuged at 18000 rpm for 50 min at 4° C. and the membrane protein pellet resuspended in cold buffer A using the Polytron (2×20 seconds). The protein concentration is determined using the Bio Rad Protein Assay and human IgG as standard. The volume of the membrane protein suspension is adjusted to a final concentration of about 2 mg protein/mL. The suspension is then once again homogenized (Polytron) on ice at 25000 rpm for 20 seconds before being aliquoted and stored at −80° C.
(§5) Radio Ligand Binding Assay: Serial dilutions of compounds (stock in 10 mM DMSO) are prepared by first diluting the compounds in DMSO followed by a 1:50 dilution into assay buffer (10 mM HEPES, pH 8.0, 100 mM NaCl, 5 mM MgCl2, 1 mM CaCl2, 0.5% fatty acid-free BSA, 0.05% Tween-20). […] The desired amount of membranes (20 μg/well) is diluted with assay buffer. […] 100 μL of the membrane-suspension is added and the plate stirred for 60 minutes. […] The filter plate is washed 5 times with ice-cold wash buffer, dried and sealed at the bottom. Then 20 μL of Microscint 40 is added into each well and the top of the plate is sealed. Finally the plate is counted for 2 min/well in a TopCount NXT instrument (Packard Instruments). The data are analyzed using the GraphPad Prism™ software.

Assay [2] deals with T1, human GPR4. Nature of the assay: Human GPR4 binding assay with additional human serum albumin (4% HSA). Conditions: binding assay with 4% HSA. On the procedure: as §4, §5
In a similar manner, a binding assay with additional human serum albumin (4% HSA) has been established.

For a further assay, the target named is Human H3 (Homo sapiens (Human), UniProt Q9Y5N1). Put plainly: Human H3 binding assay (SPA, [3H]-R-alpha-Methylhistamine). The conditions noted are these: 3 nM [3H]-R-alpha-Methylhistamine. The method, then:
c) Human H3 Binding Assay
The Scintillation Proximity Binding Assay (SPA) assay was performed in a final volume of 50 μL per well in a 384-well polystyrene plate.
The final concentration of the radioligand was 3 nM. • 20 μL of a beads (PVT-WGA type A) and membranes mixed suspension in assay buffer, in order to get a final concentration of 10 μg/well of membranes and 200 μg/well of beads. As an example, 1471 μL membranes (Conc.: 5.1 mg/mL) and 1500 μL of bead suspension (Conc.: 100 mg/mL) are diluted to a final volume of 15 mL of assay buffer.
The plates were sealed and shaken at room temperature, then allowed to stand at room temperature for at least 1 hour. The plates were counted using a Perkin Elmer TopCount reader, each well being counted for 1 minute.

Assay [3] has as its target T1, human GPR4. Nature of the assay: Cell-based assay for human GPR4 activity (pH-induced cAMP formation, HTRF, HeLa cells). Conditions: HeLa cells stably expressing human GPR4, pH-induced cAMP. On the procedure:
b) Cell-Based Assay for Human GPR4 Activity
as §1, §2

[4] abbreviates: radioligand [3H]4 (example 39), membranes of 300.19 cells expressing human GPR4.

Where a name gives a salt, the structure may show the parent alone. A value given as a limit tells only on which side of the number the result lay.

Chain of Human H3 (Q9Y5N1 whole entry): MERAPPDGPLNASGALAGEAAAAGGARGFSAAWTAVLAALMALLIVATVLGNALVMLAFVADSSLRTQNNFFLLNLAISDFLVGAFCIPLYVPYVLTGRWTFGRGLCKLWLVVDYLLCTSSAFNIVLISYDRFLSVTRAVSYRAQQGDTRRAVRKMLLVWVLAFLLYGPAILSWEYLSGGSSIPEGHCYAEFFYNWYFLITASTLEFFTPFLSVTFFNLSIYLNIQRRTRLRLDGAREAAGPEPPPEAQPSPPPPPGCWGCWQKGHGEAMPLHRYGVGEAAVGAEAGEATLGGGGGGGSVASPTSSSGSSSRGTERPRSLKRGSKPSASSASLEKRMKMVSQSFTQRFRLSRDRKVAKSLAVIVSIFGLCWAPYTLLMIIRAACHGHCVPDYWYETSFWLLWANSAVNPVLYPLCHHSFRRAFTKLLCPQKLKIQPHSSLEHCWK
T1 sequence (P46093 whole entry): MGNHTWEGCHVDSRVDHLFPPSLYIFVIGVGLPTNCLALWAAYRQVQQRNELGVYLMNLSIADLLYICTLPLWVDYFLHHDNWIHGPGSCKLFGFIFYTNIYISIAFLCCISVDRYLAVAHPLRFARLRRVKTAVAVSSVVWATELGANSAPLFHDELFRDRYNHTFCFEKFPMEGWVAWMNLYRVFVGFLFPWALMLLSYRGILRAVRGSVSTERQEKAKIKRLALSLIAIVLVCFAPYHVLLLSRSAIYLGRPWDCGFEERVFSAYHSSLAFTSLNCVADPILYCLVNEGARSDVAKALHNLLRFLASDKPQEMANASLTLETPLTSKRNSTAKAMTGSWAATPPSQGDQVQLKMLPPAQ
Chain of rat GPR4 (Q4KLH9 whole entry): as the sequence (Q8BUD0 whole entry) above, with G8W, H51R, S339T counted along it

`CCc1nn2c(C)cc(C)nc2c1Cc1ccc(/C=C/CN2CCN[C@H](COC)C2)cc1` [Example 10, 2-Ethyl-3-{4-[(E)-3-((S)-3-methoxymethyl-piperazin-1-yl)-propenyl]-benzyl}-5,7-dimethyl-pyrazolo[1,5-a]pyrimidine]: the IC50 (commonly the concentration needed to halve the response being measured) was 1340 nM at rat GPR4; 401 nM on mouse GPR4; 33 nM at human GPR4 [1] (setting [4]); 93 nM on human GPR4 [2]; greater than 30000 nM at Human H3; 54 nM against human GPR4 [3].
In the case of `CCc1nn2c(C)cc(C)nc2c1Cc1ccc(/C=C/CC2(O)CCNCC2)cc1` [Example 3, 4-{(E)-3-[4-(2-Ethyl-5,7-dimethyl-pyrazolo[1,5-a]pyrimidin-3-ylmethyl)-phenyl]-allyl}-piperidin-4-ol], the IC50 on rat GPR4 was 338 nM; against mouse GPR4 it was 124 nM; at human GPR4 [1] (setting [4]) it was 44 nM; at human GPR4 [2], 49 nM; at Human H3 it was greater than 30000 nM; on human GPR4 [3] it was 31 nM.
Consider `CCc1nn2c(C)cc(C)nc2c1Cc1ccc(OCCC2(O)CCNCC2)cc1` [Example 25, 4-{2-[4-(2-Ethyl-5,7-dimethyl-pyrazolo[1,5-a]pyrimidin-3-ylmethyl)-phenoxy]-ethyl}-piperidin-4-ol], for which the IC50 was 2090 nM on rat GPR4; 635 nM at mouse GPR4; 110 nM at human GPR4 [1] (setting [4]); 63 nM at human GPR4 [2]; greater than 30000 nM on Human H3; 52 nM against human GPR4 [3].
As for `CCc1nn2c(C)cc(C)nc2c1Cc1ccc(/C=C/CN2CCN[C@@H](CN(C)C)C2)cc1` [Example 13, ((S)-4-{(E)-3-[4-(2-Ethyl-5,7-dimethyl-pyrazolo[1,5-a]pyrimidin-3-ylmethyl)-phenyl]-allyl}-piperazin-2-ylmethyl)-dimethyl-amine trihydrochloride], the IC50 on rat GPR4 came to 1690 nM; against mouse GPR4, 388 nM; at human GPR4 [1], 7 nM; at human GPR4 [2], 7 nM; at Human H3, 4900 nM; on human GPR4 [3], 68 nM.
Take `CCc1nn2c(C)cc(C)nc2c1Cc1ccc(/C=C/CN2CCNCC2)cc1` [Example 14, 2-Ethyl-5,7-dimethyl-3-[4-((E)-3-piperazin-1-yl-propenyl)-benzyl]-pyrazolo[1,5-a]pyrimidine]: the IC50 was 691 nM at rat GPR4; 127 nM on mouse GPR4; 10 nM on human GPR4 [1] (setting [4]); 12 nM at human GPR4 [2]; greater than 30000 nM on Human H3; 55 nM against human GPR4 [3].
As to `CCc1nn2c(C)cc(C)nc2c1Cc1ccc(/C=C/CC2(O)CNC2)cc1` [Example 2, 3-{(E)-3-[4-(2-Ethyl-5,7-dimethyl-pyrazolo[1,5-a]pyrimidin-3-ylmethyl)-phenyl]-allyl}-azetidin-3-ol], the IC50 at rat GPR4 is 989 nM; on mouse GPR4, 632 nM; at human GPR4 [1], 34 nM; on human GPR4 [2], 52 nM; on Human H3, greater than 10000 nM; against human GPR4 [3] it was 55 nM.
For `CCc1nn2c(C)cc(C)nc2c1Cc1ccc(OCCN2CCN[C@@H](COC)C2)cc1` [Example 27, 2-Ethyl-3-{4-[2-((R)-3-methoxymethyl-piperazin-1-yl)-ethoxy]-benzyl}-5,7-dimethyl-pyrazolo[1,5-a]pyrimidine], the IC50 on rat GPR4 is 2630 nM; at mouse GPR4, 507 nM; at human GPR4 [1] (setting [4]) it was 59 nM; on human GPR4 [2], 81 nM; on Human H3, greater than 30000 nM; against human GPR4 [3], 64 nM.
As to `CCc1nn2c(C)cc(C)nc2c1Cc1ccc(/C=C/C2(O)CCNCC2)cc1` [Example 1, 4-{(E)-2-[4-(2-Ethyl-5,7-dimethyl-pyrazolo[1,5-a]pyrimidin-3-ylmethyl)-phenyl]-vinyl}-piperidin-4-ol], the IC50 was 931 nM on rat GPR4; 265 nM against mouse GPR4; 45 nM at human GPR4 [1]; 25 nM at human GPR4 [2]; greater than 30000 nM at Human H3; 37 nM against human GPR4 [3].
For the molecule `CCc1nn2c(C)cc(C)nc2c1Cc1ccc(/C=C/C(=O)N2CCNCC2)cc1` [Example 18, (E)-3-[4-(2-Ethyl-5,7-dimethyl-pyrazolo[1,5-a]pyrimidin-3-ylmethyl)-phenyl]-1-piperazin-1-yl-propenone hydrochloride], the IC50 was 1800 nM at rat GPR4; 1280 nM on mouse GPR4; 81 nM on human GPR4 [1] (setting [4]); 67 nM on human GPR4 [2] (read-out: GPR4 4% HSA IC50); greater than 30000 nM at Human H3; 43 nM on human GPR4 [3].
As to `CCc1nn2c(C)cc(C)nc2c1Cc1ccc(-c2nnc(C3CCN(C(=O)[C@H](CO)NC)CC3)o2)cc1` [Example 38, (S)-1-(4-{5-[4-(2-Ethyl-5,7-dimethyl-pyrazolo[1,5-a]pyrimidin-3-ylmethyl)-phenyl]-[1,3,4]oxadiazol-2-yl}-piperidin-1-yl)-3-hydroxy-2-methylamino-propan-1-one hydrochloride], the IC50 at rat GPR4 is 811 nM; on mouse GPR4, 180 nM; at human GPR4 [1] (setting [4]), 15 nM; at human GPR4 [2], 29 nM; on Human H3, greater than 30000 nM; at human GPR4 [3], 45 nM.
For the molecule `CCc1nn2c(C)cc(C)nc2c1Cc1ccc(/C=C/CC2(O)CCN(C(=O)CNC)CC2)cc1` [Example 7, 1-(4-{(E)-3-[4-(2-Ethyl-5,7-dimethyl-pyrazolo[1,5-a]pyrimidin-3-ylmethyl)-phenyl]-allyl}-4-hydroxy-piperidin-1-yl)-2-methylamino-ethanone hydrochloride], the IC50 is 1720 nM at rat GPR4; 253 nM against mouse GPR4; 34 nM on human GPR4 [1]; 56 nM on human GPR4 [2]; greater than 30000 nM on Human H3; 33 nM against human GPR4 [3].
Turning to `CCc1nn2c(C)cc(C)nc2c1Cc1ccc(/C=C/CN2CCN(C(=O)[C@H]3NCC[C@H]3O)CC2)cc1` [Example 16, (4-{(E)-3-[4-(2-Ethyl-5,7-dimethyl-pyrazolo[1,5-a]pyrimidin-3-ylmethyl)-phenyl]-allyl}-piperazin-1-yl)-((2S,3R)-3-hydroxy-pyrrolidin-2-yl)-methanone dihydrochloride], the IC50 on rat GPR4 is 837 nM; on mouse GPR4, 200 nM; on human GPR4 [1] (setting [4]), 35 nM; on human GPR4 [2], 120 nM; on Human H3, greater than 30000 nM; at human GPR4 [3], 41 nM.
Consider `CCc1nn2c(C)cc(C)nc2c1Cc1ccc(OCCN2CCNCC2)cc1` [Example 26, 2-Ethyl-5,7-dimethyl-3-[4-(2-piperazin-1-yl-ethoxy)-benzyl]-pyrazolo[1,5-a]pyrimidine], for which the IC50 on rat GPR4 was 2640 nM; at mouse GPR4 it was 633 nM; at human GPR4 [1] it was 44 nM; on human GPR4 [2], 69 nM; on Human H3, greater than 30000 nM; against human GPR4 [3] it was 96 nM.
